The values that follow come from publication PMC7496091, “Small‐Molecule Inhibitors Targeting Sterol 14α‐Demethylase (CYP51): Synthesis, Molecular Modelling and Evaluation Against Candida albicans” (Chemmedchem, 2020).

Data set [1] concerns the target T1, CaCYP51 (Candida albicans, UniProt P10613).
T1 construct: made in house; host or cells: Escherichia coli
Put plainly: biochemical. It is filed as binding. As to conditions: 3 μM native CaCYP51, mean of three replicates ± SD; read-out: K d CaCYP51. The source says:
[…]. There were no signs of compound insolubility (visible or rising background absorbance) during the ligand titrations. […] […].
The rearranged Morrison equation34 gave the best fit to the ligand saturation curves against CaCYP51 (Figure 5) indicating the selected compounds bound tightly to the purified CaCYP51 protein in free solution. Likewise the rearranged Morrison equation34 gave the best fit for binding 5 d and 5 f to Δ60HsCYP51, thus indicating tight binding in free solution (Figure 5). […].
Recombinant CYP51 protein studies. […] All azole ligand binding determinations were performed in triplicate, except the binding of compound 12 c with Δ60HsCYP51 which was performed six times. CYP51 protein samples were diluted with 0.1 M Tris⋅HCl (pH 8.1) and 25 % (w/v) glycerol to the required concentration.
Dissociation constant (K d). The K d for each CYP51‐azole complex was determined by non‐linear regression (Levenberg‐Marquardt algorithm) using a rearrangement of the Morrison equation for tight ligand binding.34 Where ligand binding was weaker, the Michaelis‐Menten equation was used to fit the data (Figure S5). K d values were determined for each of the three replicate titrations per azole compound and then mean K d values and standard deviations calculated.

A further data set has as its system C. albicans SC5314. Description: MIC, CLSI M27-S4 broth dilution, strain SC5314. It counts as cell-based, Candida albicans. As to conditions: 48 hours. The method, then:
The susceptibilities of the SC5314 and CA14C. albicans (azole sensitive) strains to all novel azole derivatives (5, 7 and 12) were determined (Table 3) using the standardized CLSI M27‐S4 broth dilution method.28
Susceptibility testing of C. albicans strains. […] Stock solutions of each agent were prepared in DMSO. Further dilutions were made in RPMI‐1640, and the final concentration of DMSO was 1 % (v/v). The final testing concentrations for all compounds ranged from 0.03–16 μg mL^−1.
On the technique in general: In broth dilution the organism is exposed to a series of concentrations in liquid medium.

In data set [2] the target is T1, CaCYP51. Description: biochemical. As to conditions: 1 μM CaCYP51, lanosterol as substrate, curve-fitted; read-out: CaCYP51 IC50. As for the experimental part: […]. […] […]. CYP51 reconstitution assays. IC50 values were determined for individual azole compounds18, 30 using lanosterol as substrate. Azoles were introduced using 2.5 μL of stock solutions in DMSO. CaCYP51 assays contained 1 μM CaCYP51 and 2 μM Homo sapiens cytochrome P450 reductase (HsCPR – UniProtKB accession number P16435) and were incubated for 20 min at 37 °C. HsCYP51 assays contained 0.25 μM Δ60HsCYP51 and 1 μM HsCPR and were incubated for 10 min at 37 °C. Each IC50 experiment was performed in duplicate.

The next data set relates to C. albicans CA14. Description: MIC, CLSI M27-S4 broth dilution, strain CA14. It is filed as cell-based, Candida albicans. As to conditions: 48 hours. As for the experimental part:
Susceptibility testing of C. albicans strains. […] Stock solutions of each agent were prepared in DMSO. […] The final testing concentrations for all compounds ranged from 0.03–16 μg mL^−1.

Where [3] appears, read: Candida albicans, SC5314, 80 % reduction in turbidity.
The mark [4] stands for this setting: Candida albicans, SC5314, value in brackets.
Where [5] appears, read: Candida albicans, CA14, 80 % reduction in turbidity.
Where [6] appears, read: Candida albicans, CA14, value in brackets.

Each structure is given as a SMILES string. In brackets after ≈: the same amount, converted by molar mass.

T1 sequence (P10613 whole entry): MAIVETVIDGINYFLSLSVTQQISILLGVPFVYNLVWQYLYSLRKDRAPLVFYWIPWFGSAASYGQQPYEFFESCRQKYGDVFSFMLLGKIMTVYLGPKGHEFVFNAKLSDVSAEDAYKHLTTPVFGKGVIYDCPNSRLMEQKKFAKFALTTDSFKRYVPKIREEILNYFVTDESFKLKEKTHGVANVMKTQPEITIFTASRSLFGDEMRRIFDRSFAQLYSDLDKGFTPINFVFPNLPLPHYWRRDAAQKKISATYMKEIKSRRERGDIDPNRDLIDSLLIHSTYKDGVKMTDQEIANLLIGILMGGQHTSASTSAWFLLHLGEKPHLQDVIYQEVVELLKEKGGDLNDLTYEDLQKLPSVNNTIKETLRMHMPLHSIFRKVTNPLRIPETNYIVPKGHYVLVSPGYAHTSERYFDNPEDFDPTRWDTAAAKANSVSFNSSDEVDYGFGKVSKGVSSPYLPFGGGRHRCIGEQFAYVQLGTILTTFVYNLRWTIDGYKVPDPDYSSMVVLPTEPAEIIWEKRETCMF

A word on the melting point: it is the temperature, or range, at which the solid turns liquid. By MIC is commonly meant the lowest concentration that inhibits growth of the organism. Low readings indicate inhibition by little substance, high ones a need for much substance. By IC50 is commonly meant the concentration that gives 50% inhibition. As for `O=C(NCc1ccc(F)cc1)C(Cn1ccnc1)c1ccccc1` (stereo not shown) [Compound 5 b, N‐(4‐Fluorobenzyl)‐3‐(1H‐imidazol‐1‐yl)‐2‐phenylpropanamide], the melting point is 100 to 102 °C. In addition, at CaCYP51 [1], the Kd came to 87 ± 27 nM. For the same compound, in the data set on C. albicans SC5314 (setting [3]), the MIC was determined as 8 µg/mL. In the data set with C. albicans SC5314 (setting [4]), this compound came in with an MIC of 24.7 µM. Further, the IC50 on CaCYP51 [2] stood at 1410 nM. Besides, in the data set with C. albicans CA14 (setting [5]), the MIC turned out to be 4 µg/mL. In addition, the MIC against C. albicans CA14 (setting [6]) came to 12.4 µM.

On to `O=C(NCc1ccc(Cl)cc1)C(Cn1ccnc1)c1ccccc1` (stereo not shown) [Compound 5 c, N‐(4‐Chlorobenzyl)‐3‐(1H‐imidazol‐1‐yl)‐2‐phenylpropanamide], for which, on CaCYP51 [1], the Kd came out at 60 ± 4 nM. Also, the “MIC SC5314” value against C. albicans SC5314 (80 % reduction in turbidity) was determined as 8 µg/mL (≈ 23.5 µM). Further, the MIC against C. albicans SC5314 (value in brackets) was found to be 23.5 µM; in the data set with C. albicans CA14 (value in brackets), 11.8 µM. Besides, the IC50 at CaCYP51 [2] was determined as 1010 nM. Moreover, the “MIC CA14” value in the data set on C. albicans CA14 (80 % reduction in turbidity) was 4 µg/mL (≈ 11.8 µM).

As to `O=C(NCc1ccc(Cl)cc1Cl)C(Cn1ccnc1)c1ccccc1` (stereo not shown) [Compound 5 e, N‐(2,4‐Dichlorobenzyl)‐3‐(1H‐imidazol‐1‐yl)‐2‐phenylpropanamide], the melting point was 55 to 57 °C. Further, at CaCYP51 [1], the Kd worked out at 83 ± 26 nM. In the data set on C. albicans SC5314 (setting [3]), this compound registered a minimal inhibitory concentration (MIC) of 1 µg/mL. The lowest concentration to inhibit growth in the data set with C. albicans SC5314 (setting [4]) (MIC) was 2.67 µM. Further, the IC50 on CaCYP51 [2] stood at 990 nM. In the data set on C. albicans CA14 (setting [5]), this compound came in with an MIC of 1 µg/mL. Also, in the data set on C. albicans CA14 (setting [6]), the lowest concentration to inhibit growth (MIC) was 2.67 µM.

Compound `Cc1ccc(CNC(=O)C(Cn2ccnc2)c2ccccc2)cc1` (stereo not shown) [Compound 5 g, 3‐(1H‐Imidazol‐1‐yl)‐N‐(4‐methylbenzyl)‐2‐phenylpropanamide] gave a melting point of 134 to 136 °C. Moreover, on CaCYP51 [1], the Kd was determined as 144 ± 47 nM. The compound also had an MIC against C. albicans SC5314 (setting [3]) of 8 µg/mL. Also, in the data set with C. albicans SC5314 (setting [4]), it took 25.1 µM to inhibit growth (MIC). In addition, the IC50 at CaCYP51 [2] turned out to be 2450 nM. In the data set with C. albicans CA14 (setting [5]), this compound displayed an MIC of 8 µg/mL. The MIC with C. albicans CA14 (setting [6]) turned out to be 25.1 µM.

For the compound `O=C(NCc1ccc(C(F)(F)F)cc1)C(Cn1ccnc1)c1ccccc1` (stereo not shown) [Compound 5 h, 3‐(1H‐Imidazol‐1‐yl)‐2‐phenyl‐N‐(4‐(trifluoromethyl)benzyl)propanamide], the Kd at CaCYP51 [1] was 85 ± 19 nM. Moreover, the MIC is 4 µg/mL with C. albicans SC5314 (setting [3]), 10.7 µM with C. albicans SC5314 (setting [4]), 4 µg/mL against C. albicans CA14 (setting [5]) and 10.7 µM in the data set on C. albicans CA14 (setting [6]). Besides, the IC50 at CaCYP51 [2] worked out at 2210 nM.

The compound `COc1ccc(CNC(=O)C(Cn2ccnc2)c2ccccc2)cc1` (stereo not shown) [Compound 5 i, 3‐(1H‐Imidazol‐1‐yl)‐N‐(4‐methoxybenzyl)‐2‐phenylpropanamide] had a melting point of 102 to 104 °C. The Kd at CaCYP51 [1] turned out to be 55 ± 10 nM. Also, the MIC against C. albicans SC5314 (setting [3]) is 8 µg/mL. It took 23.9 µM to inhibit growth against C. albicans SC5314 (setting [4]) (MIC). Also, the IC50 at CaCYP51 [2] came out at 910 nM. In the data set on C. albicans CA14 (setting [5]), this compound gave an MIC of 8 µg/mL. The same compound displayed an MIC against C. albicans CA14 (setting [6]) of 23.9 µM.

Take `COc1ccc(CNC(=O)C(Cn2ccnc2)c2ccccc2)cc1OC` (stereo not shown) [Compound 5 j, N‐(3,4‐Dimethoxybenzyl)‐3‐(1H‐imidazol‐1‐yl)‐2‐phenylpropanamide]: the minimum inhibitory concentration (MIC) against C. albicans SC5314 (setting [3]) is greater than 16 µg/mL; in the data set on C. albicans SC5314 (setting [4]) it was greater than 43.8 µM; in the data set with C. albicans CA14 (setting [5]), greater than 16 µg/mL; with C. albicans CA14 (setting [6]), greater than 43.8 µM. In addition, on CaCYP51 [2], the half-maximal inhibitory concentration (IC50) was found to be 6150 nM.

As for `O=C(NCc1ccc(Cl)cc1)C(Cn1cncn1)c1ccccc1` (stereo not shown) [Compound 5 k, N‐(4‐Chlorobenzyl)‐2‐phenyl‐3‐(1H‐1,2,4‐triazol‐1‐yl)propanamide], the Kd on CaCYP51 [1] was found to be 167 ± 17 nM. Also, the “MIC SC5314” value with C. albicans SC5314 (80 % reduction in turbidity) is 8 µg/mL (≈ 23.5 µM). The MIC in the data set with C. albicans SC5314 (value in brackets) and with C. albicans CA14 (value in brackets) was 23.5 µM throughout. In addition, at CaCYP51 [2], the IC50 stood at 4320 nM. In addition, in the data set on C. albicans CA14 (80 % reduction in turbidity), the “MIC CA14” value came out at 8 µg/mL (≈ 23.5 µM).

The compound `C=C(C(=O)NCc1ccc(F)cc1)c1ccccc1` [Compound 6 b, N‐(4‐Fluorobenzyl)‐2‐phenylacrylamide] yielded a melting point of 108 to 110 °C.

`C=C(C(=O)NCc1ccc(Cl)cc1)c1ccc(Cl)cc1` [Compound 6 d, N‐(4‐Chlorobenzyl)‐2‐(4‐chlorophenyl)acrylamide]: the melting point was in the range of 108 to 110 °C.

Turning to `C=C(C(=O)NCc1ccc(Cl)cc1Cl)c1ccccc1` [Compound 6 e, N‐(2,4‐Dichlorobenzyl)‐2‐phenylacrylamide], the melting point fell in the range of 66 to 68 °C.

For `C=C(C(=O)NCc1ccc(Cl)cc1Cl)c1ccc(Cl)cc1` [Compound 6 f, 2‐(4‐Chlorophenyl)‐N‐(2,4‐dichlorobenzyl)acrylamide], the melting point was 104 to 106 °C.

As for `C=C(C(=O)NCc1ccc(C)cc1)c1ccccc1` [Compound 6 g, N‐(4‐Methylbenzyl)‐2‐phenylacrylamide], the melting point lay in the range of 92 to 94 °C.

Compound `C=C(C(=O)NCc1ccc(C(F)(F)F)cc1)c1ccccc1` [Compound 6 h, 2‐Phenyl‐N‐(4‐(trifluoromethyl)benzyl)acrylamide] displayed a melting point of 88 to 90 °C.

`C=C(C(=O)NCc1ccc(OC)cc1)c1ccccc1` [Compound 6 i, N‐(4‐Methoxybenzyl)‐2‐phenylacrylamide] had a melting point of 100 to 102 °C.

In turn, `C=C(C(=O)NCc1ccc(OC)c(OC)c1)c1ccccc1` [Compound 6 j, N‐(3,4‐Dimethoxybenzyl)‐2‐phenylacrylamide] came in with a melting point of 102 to 104 °C.

Take `C=C(C(=O)NCc1ccc(NC(=O)OC(C)(C)C)cc1)c1ccccc1` [Compound 6 l, tert‐Butyl (4‐((2‐phenylacrylamido)methyl)phenyl)carbamate]: the melting point is 136 to 138 °C.

With `Nc1ccc(CNC(=O)C(Cn2cncn2)c2ccccc2)cc1.O=C(O)C(F)(F)F` (stereo not shown) [Compound 7], in the data set with C. albicans SC5314 (80 % reduction in turbidity), the “MIC SC5314” value was greater than 16 µg/mL. The MIC in the data set on C. albicans SC5314 (value in brackets) and with C. albicans CA14 (value in brackets) was greater than 36.8 µM in each case. Further, the concentration for half-maximal inhibition (IC50) at CaCYP51 [2] was found to be 1960 nM. Besides, the “MIC CA14” value in the data set on C. albicans CA14 (80 % reduction in turbidity) is greater than 16 µg/mL.

On to `O=C(NCc1ccc(NS(=O)(=O)c2ccc(F)cc2)cc1)C(Cn1cncn1)c1ccccc1` (stereo not shown) [Compound 12 b, N‐(4‐((4‐Fluorophenyl)sulfonamido)benzyl)‐2‐phenyl‐3‐(1H‐1,2,4‐triazol‐1‐yl) propanamide], for which, on CaCYP51 [1], the Kd stood at 55 ± 27 nM. The “MIC SC5314” value against C. albicans SC5314 (80 % reduction in turbidity) was found to be 4 µg/mL (≈ 8.34 µM). Also, the minimal inhibitory concentration (MIC) worked out at 8.34 µM in the data set with C. albicans SC5314 (value in brackets) and 4.17 µM against C. albicans CA14 (value in brackets). Further, the IC50 on CaCYP51 [2] came to 200 nM. For the same compound, in the data set on C. albicans CA14 (80 % reduction in turbidity), the “MIC CA14” value stood at 2 µg/mL (≈ 4.17 µM).

For `COc1ccc(S(=O)(=O)Nc2ccc(CNC(=O)C(Cn3cncn3)c3ccccc3)cc2)cc1` (stereo not shown) [Compound 12 d, 2‐Phenyl‐N‐(4‐(4‐methoxyphenylsulfonamido)benzyl)‐3‐(1H‐1,2,4‐triazol‐1‐yl)propanamide], the Kd on CaCYP51 [1] was found to be 110 ± 22 nM. Moreover, the MIC turned out to be 8 µg/mL with C. albicans SC5314 (setting [3]), 16.3 µM against C. albicans SC5314 (setting [4]), 4 µg/mL against C. albicans CA14 (setting [5]) and 8.14 µM against C. albicans CA14 (setting [6]). Besides, on CaCYP51 [2], the IC50 was determined as 790 nM.

As to `C=C(C(=O)NCc1ccc(NS(=O)(=O)c2ccc(F)cc2)cc1)c1ccccc1` [Compound 13 b, N‐(4‐((4‐Fluorophenyl)sulfonamido)benzyl)‐2‐phenylacrylamide], the melting point was in the range of 136 to 138 °C.

In turn, `C=C(C(=O)NCc1ccc(NS(=O)(=O)c2ccc(OC)cc2)cc1)c1ccccc1` [Compound 13 d, N‐(4‐((4‐Methoxyphenyl)sulfonamido)benzyl)‐2‐phenylacrylamide] came in with a melting point of 98 to 100 °C.
